US7799913B2, “Carbonylbenzoxazine compounds for enhancing glutamatergic synaptic responses” (Cortex Pharmaceuticals, Inc., priority 2001, dated 2010)

Assays:
[1] = test system: AMPA receptors; assay: field EPSP amplitude in field CA1 of rat hippocampal slice; type: cell-based; settings: for AMP: concentration of modulator that increases the amplitude of the fEPSP by 10%: rat hippocampal slice
Excerpt: The field EPSP, (excitatory post-synaptic potential) recorded in field CA1 after stimulation of CA3 axons is known to be mediated by AMPA receptors, which are present in the synapses (Kessler et al., Brain Res. 560: 337-341 (1991)). Drugs that selectively block the receptor selectively block the field EPSP (Muller et al., Science, supra). […] These effects are mirrored in the field EPSP (see, for example, Staubli et al., Psychobiology, supra; Xiao et al., Hippocampus, supra; Staubli et al., Hippocampus 2: 4958 (1992)).
To obtain the data shown in Table I, a bipolar nichrome stimulating electrode was positioned in the dendritic layer (stratum radiatum) of the hippocampal subfield CA1 close to the border of subfield CA3, as described in Example 64. Current pulses (0.1 msec) through the stimulating electrode activate a population of the Schaffer-commissural (SC) fibers, which arise from neurons in the subdivision CA3 and terminate in synapses on the dendrites of CA1 neurons. Activation of these synapses causes them to release the transmitter glutamate. Glutamate binds to post-synaptic AMPA receptors, which then transiently open an associated ion channel and permit a sodium current to enter the postsynaptic cell. This current results in a voltage in the extracellular space (the field EPSP), which is recorded by a high impedance recording electrode positioned in the middle of the stratum radiatum of CA1.
The intensity of the stimulation current was adjusted to produce half-maximal EPSPs (typically about 1.5-2.0 mV). Paired stimulation pulses were given every 40 sec with an interpulse interval of 200 msec, as described further in Example 64.
Hippocampal slices were maintained in a recording chamber continuously perfused with artificial cerebrospinal fluid (ACSF). During 15-30 minute intervals, the perfusion medium was switched to one containing various concentrations of the test compounds. Responses collected immediately before and at the end of drug perfusion were superimposed in order to calculate the percent increase in EPSP amplitude.
(§1) The physiological effects of invention compounds were tested in vitro on primary cultures of rat cortical neurons as described by Hamill, O P, et al. in Pflügers Arch 391: 85-100 (1981) or on slices of rat hippocampus according to the following procedure. Excitatory responses (field EPSPs) were measured in hippocampal slices, which were maintained in a recording chamber continuously perfused with artificial cerebrospinal fluid (ACSF). During a 15-30 minute interval, the perfusion medium was switched to one containing various concentrations of the test compounds. Responses collected immediately before and at the end of drug perfusion were superimposed in order to calculate the percent increase in EPSP amplitude.
To conduct these tests, the hippocampus was removed from anesthetized, 2 month old Sprague-Dawley rats and in vitro slices (400 μm thick) were prepared and maintained in an interface chamber at 35° C. using conventional techniques [see, for example, Dunwiddie and Lynch, J. Physiol. 276: 353-367 (1978)]. The chamber was constantly perfused at 0.5 mL/min with ACSF containing (in mM): NaCl 124, KCl 3, KH2PO4 1.25, MgSO4 2.5, CaCl2 3.4, NaHCO3 26, glucose 10 and L-ascorbate 2. A bipolar nichrome stimulating electrode was positioned in the dendritic layer (stratum radiatum) of the hippocampal subfield CA1 close to the border of subfield CA3.
Current pulses (0.1 msec) through the stimulating electrode activate a population of the Schaffer-commissural (SC) fibers, which arise from neurons in the subdivision CA3 and terminate in synapses on the dendrites of CA1 neurons. Activation of these synapses causes them to release the transmitter glutamate. Glutamate binds to the post-synaptic AMPA receptors, which then transiently open an associated ion channel and permit a sodium current to enter the postsynaptic cell. […]

[2] = test system: AMPA receptor; assay: steady-state current induced by glutamate in cortical neurons in primary culture; type: cell-based, rat; settings: for EC2X: concentration of modulator required to double the steady state current: 300 μM glutamate on cultured neurons
Procedure: as §1

[3] = eight-arm radial maze task for cognition/memory enhancement; type: in vivo
Excerpt: This task has been described previously (Staubli et al., PNAS 91:777-781 (1994)) and Lynch and Rogers, PCT Pubn. No. WO 94/02475).
This test has been described previously by Staubli et al., PNAS 91:777-781 (1994) and Lynch and Rogers, U.S. Pat. No. 5,747,492.

melting point [°C]	Compound	Amp: concentration of compound that causes a 10% increase in the amplitude of the field EPSP ([1]; field CA1 of rat hippocampal slice, estimated by interpolation or extrapolation) [µM]	AMP: concentration of modulator that increases the amplitude of the fEPSP by 10% [1] [µM]	EC2X: concentration of modulator required to double the steady state current [2] [µM]	EC2x: concentration of compound that causes at least a doubling of the steady-state current ([2]; cortical neurons in primary culture, 300 μM glutamate) [µM]	MEDC: Minimum Effective Dose that produces a statistically significant improvement in behavior ([3]; eight-arm radial maze task) [mg/kg]	potency relative to CX516 (times more potent) ([3]; eight-arm radial maze MEDC)
–	O=C(c1ccc2nccnc2c1)N1CCCCC1 [CX516, 1-(quinoxaline-6-ylcarbonyl)piperidine, reference compound]	80	80	830	830	12.5	–
–	O=C1c2cc3c(cc2OC2CCCN12)C(=O)N1CCCC1O3 [Example 1, (R,S), (R,S)-3aH,9aH-pyrrolidino[2,1-b]pyrrolidino[2″,1″-2′,3′](1,3-oxazino)[5′,6′-2,1]benzo[4,5-e]1,3-oxazaperhydroine-6,12-dione]	–	–	–	–	–	250
236 to 237	CCN1COc2cc3c(cc2C1=O)OCN(CC)C3=O [Example 21, 3,8-diethyl-2H,7H-1,3-oxazaperhydroino[5′,6′-4,5]benzo[e]1,3-oxazine-4,9-dione]	–	10	1.8	–	–	–
